Results as given in ChEMBL document CHEMBL1201862, “PubChem BioAssay data set” (2004).
Calls of active or inactive are those of the source.

Assays:
[1] = molecular target: ATP-dependent molecular chaperone HSP82 (Candida albicans (strain WO-1) (Yeast), UniProt C4YTQ8); assay: steroid-induced GRE reporter decrease in yeast – S. cerevisiae, luminescence, Hsp90 inhibitor project, dose response (AID 2400); type: functional, cell-based;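 further: beta-galactosidase luminescence from glucocorticoid response element reporter as proxy for Hsp90 function; inhibitor potency where signal loss means Hsp90 inhibition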
[2] = molecular target: Serine/threonine-protein phosphatase (Candida dubliniensis (strain CD36 / CBS 7987 / NCPF 3949 / NRRLY-17841) (Yeast), UniProt B9W6M3); assay: blockers of CaCl2-induced CDRE-lacZ signaling – S. cerevisiae, luminescence, secondary, dose response (AID 2388); type: functional, cell-based;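 further: yeast reporter cells carrying a calcineurin-responsive lacZ construct stimulated with calcium chloride; luminescent beta-galactosidase reporter signal in whole cells rather than isolated phosphatase activity; potency for inhibition where a drop in reporter signal means calcineurin blockade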
[3] = NIH3T3 cell viability loss – ATP luminescence, mouse fibroblasts, counter-screen, dose response (AID 2010); type: functional, cell-based;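 further: cells exposed to compound for about 90 hours before reading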
[4] = Trypanosoma cruzi growth suppression in host cells – NIH3T3 host cells, beta-gal luminescence, confirmation (AID 2044); type: functional, cell-based;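 further: intracellular parasites grown in NIH/3T3 mouse fibroblasts as host cells; luminescent beta-galactosidase reporter signal from transgenic T. cruzi replicating inside host cells; inhibitors lower the luminescence signal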
Protein RecA = molecular target: T1, Protein RecA (Mycobacterium tuberculosis, UniProt P9WHJ3); assay: Fluorescence Cell-Free Homogeneous Dose Retest to Identify Inhibitors of RecA-Intein Splicing Activity. [Related pubchem assays (depositor defined):AID2097, AID2223, AID489010, AID492950]; type: functional
T1 sequence (P9WHJ3 whole entry): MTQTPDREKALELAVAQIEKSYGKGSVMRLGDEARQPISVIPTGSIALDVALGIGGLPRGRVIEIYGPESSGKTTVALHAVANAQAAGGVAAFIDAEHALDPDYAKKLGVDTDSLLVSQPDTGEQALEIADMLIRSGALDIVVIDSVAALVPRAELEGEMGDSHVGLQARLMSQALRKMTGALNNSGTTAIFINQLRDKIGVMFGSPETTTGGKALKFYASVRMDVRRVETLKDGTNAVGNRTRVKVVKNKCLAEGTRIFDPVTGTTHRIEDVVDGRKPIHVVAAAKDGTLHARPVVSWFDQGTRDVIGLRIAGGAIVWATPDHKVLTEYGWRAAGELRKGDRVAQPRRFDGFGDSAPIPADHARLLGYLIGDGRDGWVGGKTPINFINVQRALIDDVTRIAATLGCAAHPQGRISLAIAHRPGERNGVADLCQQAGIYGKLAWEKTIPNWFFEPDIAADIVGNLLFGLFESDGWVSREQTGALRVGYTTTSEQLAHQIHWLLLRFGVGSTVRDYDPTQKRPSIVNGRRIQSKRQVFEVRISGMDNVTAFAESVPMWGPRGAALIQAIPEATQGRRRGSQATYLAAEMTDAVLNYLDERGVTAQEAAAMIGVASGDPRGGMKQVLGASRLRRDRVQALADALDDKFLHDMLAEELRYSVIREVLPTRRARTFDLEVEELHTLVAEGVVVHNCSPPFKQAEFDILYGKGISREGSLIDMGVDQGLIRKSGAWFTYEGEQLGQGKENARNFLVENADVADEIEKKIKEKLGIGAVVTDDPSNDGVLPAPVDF

[5] = NIH-3T3 fibroblast cytotoxicity, dose response, cytotoxicity control, cell-based, fluorescence, Alamar Blue, secondary assay (AID 2327); type: functional;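 further: NIH-3T3 mouse fibroblasts cultured with fluconazole at 8 µg/mL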
[6] = molecular target: T2, Heat shock factor protein 1 (Mus musculus, UniProt P38532); assay: decrease of HSF1-responsive luciferase luminescence – cell-based, NIH3T3, dose retest, confirmation (AID 2382); type: functional;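 further: NIH3T3 fibroblasts with HSF1-driven luciferase reporter stressed by proteasome inhibitor MG132; luminescence from HSF1-driven luciferase expression after 8 hours of MG132 stress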
T2 sequence (P38532 whole entry): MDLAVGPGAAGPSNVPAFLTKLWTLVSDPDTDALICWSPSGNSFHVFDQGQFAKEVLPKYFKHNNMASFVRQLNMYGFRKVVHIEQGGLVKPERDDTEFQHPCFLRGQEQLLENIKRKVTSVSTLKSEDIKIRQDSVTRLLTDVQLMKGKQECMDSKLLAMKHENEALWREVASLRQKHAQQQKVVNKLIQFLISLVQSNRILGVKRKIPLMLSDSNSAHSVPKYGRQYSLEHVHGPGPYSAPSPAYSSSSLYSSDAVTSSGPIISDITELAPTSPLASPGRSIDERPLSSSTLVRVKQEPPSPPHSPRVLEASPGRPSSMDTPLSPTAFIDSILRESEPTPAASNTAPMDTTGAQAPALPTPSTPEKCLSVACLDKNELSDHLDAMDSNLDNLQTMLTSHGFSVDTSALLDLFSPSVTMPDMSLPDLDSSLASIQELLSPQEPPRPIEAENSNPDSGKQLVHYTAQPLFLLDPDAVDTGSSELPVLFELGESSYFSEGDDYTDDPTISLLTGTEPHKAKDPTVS

[7] = viability of HCT116 lacking mutant beta-catenin – cell-based, human colon tumor, dose response (AID 1045); type: functional;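 further: HCT116 colon tumor cells with beta catenin knocked out; cells exposed to compound for 60 hours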
[8] = fluconazole-exposed Candida albicans growth modulators – fluorescence, retest, confirmation (AID 2467); type: functional, cell-based
Nonstructural protein 1 = Nonstructural protein 1 (Influenza A virus, UniProt Q194T2); type: functional, Influenza A virus (A/California/07/2009(H1N1))
Estrogen receptor beta = Estrogen receptor beta (Homo sapiens, UniProt Q92731); assay: blockers of SRC-3 recruitment to ERβ – biochemical, ELISA, streptavidin-HRP readout, orthogonal assay, confirmation (AID 1060)
[9] = viability of PTEN-deleted HCT116 cells – cell-based, HCT116 PTEN knockout, dose response (AID 1047); type: functional;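 further: HCT116 colon tumor cells with PTEN knocked out; cells exposed to compound for 60 hours before readout; potency for loss of cell viability measured by luminescence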
[10] = molecular target: T3, Replicative DNA helicase DnaB (Mycobacterium tuberculosis, UniProt P9WMR3); assay: DnaB intein splicing inhibitors, dose response, biochemical, cell-free fluorescence (AID 449749); type: functional
T3 sequence (P9WMR3 whole entry): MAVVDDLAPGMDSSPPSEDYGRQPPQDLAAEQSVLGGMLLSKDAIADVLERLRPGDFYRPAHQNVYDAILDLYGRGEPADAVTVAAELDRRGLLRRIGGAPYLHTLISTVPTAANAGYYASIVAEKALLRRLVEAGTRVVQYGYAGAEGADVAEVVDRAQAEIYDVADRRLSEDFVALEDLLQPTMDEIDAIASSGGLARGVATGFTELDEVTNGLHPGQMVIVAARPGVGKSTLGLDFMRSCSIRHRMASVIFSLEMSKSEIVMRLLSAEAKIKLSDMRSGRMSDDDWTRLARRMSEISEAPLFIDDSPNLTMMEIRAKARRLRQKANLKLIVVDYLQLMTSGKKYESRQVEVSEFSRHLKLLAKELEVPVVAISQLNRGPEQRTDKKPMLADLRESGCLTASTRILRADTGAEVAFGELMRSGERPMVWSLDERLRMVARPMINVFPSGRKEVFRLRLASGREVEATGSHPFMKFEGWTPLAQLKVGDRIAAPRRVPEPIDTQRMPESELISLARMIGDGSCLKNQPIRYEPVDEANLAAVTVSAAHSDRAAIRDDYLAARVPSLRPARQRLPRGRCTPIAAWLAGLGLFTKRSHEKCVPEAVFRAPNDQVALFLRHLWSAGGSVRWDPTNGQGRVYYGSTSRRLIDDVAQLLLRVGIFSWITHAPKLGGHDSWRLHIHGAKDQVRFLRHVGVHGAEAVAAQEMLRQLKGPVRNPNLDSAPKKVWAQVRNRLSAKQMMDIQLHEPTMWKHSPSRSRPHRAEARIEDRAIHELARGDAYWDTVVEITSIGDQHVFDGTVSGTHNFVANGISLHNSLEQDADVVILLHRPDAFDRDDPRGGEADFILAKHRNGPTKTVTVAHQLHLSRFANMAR

[11] = molecular target: Delta-type opioid receptor (Homo sapiens, UniProt P41143); assay: Counterscreen for agonists of heterodimerization of the mu 1 (OPRM1) and delta 1 (OPRD1) opioid receptors: Luminescence-based cell-based high throughput dose response assay to identify agonists of OPRD1 homodimerization. [Related pubchem assays (depositor defined):AID504326, AID504355, AID504692, AID504904, AID504905]; type: functional
Cytochrome P450 3A4 = Cytochrome P450 3A4 (Homo sapiens, UniProt P08684);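 further: CYP3A4 tested as one member of a cytochrome P450 panel screen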
[12] = molecular target: T4, Short transient receptor potential channel 4 (Mus musculus, UniProt Q9QUQ5); assay: block of DAMGO-driven TRPC4 calcium entry – cell-based, HEK293 TRPC4/mu-opioid, Fluo-4 calcium, dose response (AID 434942); type: functional;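 further: potency of inhibitors blocking the TRPC4 calcium response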
T4 sequence (Q9QUQ5 whole entry): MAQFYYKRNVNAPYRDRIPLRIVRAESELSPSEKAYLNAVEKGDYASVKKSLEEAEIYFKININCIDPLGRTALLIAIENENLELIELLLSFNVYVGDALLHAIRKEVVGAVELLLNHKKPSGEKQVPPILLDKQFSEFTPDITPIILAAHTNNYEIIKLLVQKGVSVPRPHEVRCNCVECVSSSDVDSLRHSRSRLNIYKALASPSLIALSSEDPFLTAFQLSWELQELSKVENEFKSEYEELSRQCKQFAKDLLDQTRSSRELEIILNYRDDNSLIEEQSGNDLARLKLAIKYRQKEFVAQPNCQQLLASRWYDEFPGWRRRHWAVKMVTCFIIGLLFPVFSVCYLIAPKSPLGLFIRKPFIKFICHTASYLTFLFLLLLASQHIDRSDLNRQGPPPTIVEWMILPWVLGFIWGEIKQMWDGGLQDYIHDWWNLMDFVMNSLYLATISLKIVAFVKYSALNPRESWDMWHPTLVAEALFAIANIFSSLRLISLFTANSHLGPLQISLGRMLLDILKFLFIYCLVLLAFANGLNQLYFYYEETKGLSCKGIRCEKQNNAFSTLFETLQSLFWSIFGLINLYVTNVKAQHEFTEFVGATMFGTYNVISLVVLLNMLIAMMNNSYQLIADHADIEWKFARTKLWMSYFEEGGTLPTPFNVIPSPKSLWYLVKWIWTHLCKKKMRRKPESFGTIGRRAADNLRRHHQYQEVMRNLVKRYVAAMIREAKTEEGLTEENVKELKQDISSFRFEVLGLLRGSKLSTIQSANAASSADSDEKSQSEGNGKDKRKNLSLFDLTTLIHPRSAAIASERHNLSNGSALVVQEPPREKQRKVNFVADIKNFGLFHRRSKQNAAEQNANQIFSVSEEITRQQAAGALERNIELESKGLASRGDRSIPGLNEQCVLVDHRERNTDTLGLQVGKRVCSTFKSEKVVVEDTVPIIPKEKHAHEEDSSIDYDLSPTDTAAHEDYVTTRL

[13] = molecular target: T4, Short transient receptor potential channel 4; assay: calcium entry via TRPC4 opening agents – cell-based, HEK293 TRPC4/mu-opioid, Fluo-4 calcium, dose response (AID 434937); type: functional
Cytochrome P450 2C19 = Cytochrome P450 2C19 (Homo sapiens, UniProt P33261); assay: Cytochrome panel assay with activity outcomes. Panel member name: p450-cyp2c19 Compounds with AC50 equal or less than 10 uM are considered active; type: functional; conditions: read-out: AC50
[14] = molecular target: 5-hydroxytryptamine receptor 5A (Homo sapiens, UniProt P47898); assay: Counterscreen for agonists of OPRM1-OPRD1 heterodimerization: luminescence-based cell-based high throughput dose response assay to identify agonists of 5-hydroxytryptamine (serotonin) 5A receptor (HTR5A). [Related pubchem assays (depositor defined):AID504326, AID504355, AID504692, AID504904, AID504905]; type: functional
Mu-type opioid receptor = Mu-type opioid receptor (Homo sapiens, UniProt P35372); assay: Counterscreen for agonists of heterodimerization of the mu 1 (OPRM1) and delta 1 (OPRD1) opioid receptors: Luminescence-based cell-based high throughput dose response assay to identify agonists of OPRM1 homodimerization.; type: functional;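 further: U2OS cells expressing OPRM1 and beta-arrestin as split beta-galactosidase partners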
Chain of Mu-type opioid receptor (P35372 whole entry): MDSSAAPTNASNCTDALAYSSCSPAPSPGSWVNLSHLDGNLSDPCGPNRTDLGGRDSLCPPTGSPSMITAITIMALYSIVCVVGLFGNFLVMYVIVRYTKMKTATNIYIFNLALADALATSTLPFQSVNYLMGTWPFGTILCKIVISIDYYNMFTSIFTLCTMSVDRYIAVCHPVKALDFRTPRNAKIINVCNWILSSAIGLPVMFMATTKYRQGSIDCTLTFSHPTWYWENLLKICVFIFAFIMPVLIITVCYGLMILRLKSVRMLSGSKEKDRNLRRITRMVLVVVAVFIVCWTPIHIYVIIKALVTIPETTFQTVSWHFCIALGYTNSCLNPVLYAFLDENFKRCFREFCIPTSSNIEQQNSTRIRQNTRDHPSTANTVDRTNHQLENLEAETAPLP

Chain of ATP-dependent molecular chaperone HSP82 (C4YTQ8 whole entry): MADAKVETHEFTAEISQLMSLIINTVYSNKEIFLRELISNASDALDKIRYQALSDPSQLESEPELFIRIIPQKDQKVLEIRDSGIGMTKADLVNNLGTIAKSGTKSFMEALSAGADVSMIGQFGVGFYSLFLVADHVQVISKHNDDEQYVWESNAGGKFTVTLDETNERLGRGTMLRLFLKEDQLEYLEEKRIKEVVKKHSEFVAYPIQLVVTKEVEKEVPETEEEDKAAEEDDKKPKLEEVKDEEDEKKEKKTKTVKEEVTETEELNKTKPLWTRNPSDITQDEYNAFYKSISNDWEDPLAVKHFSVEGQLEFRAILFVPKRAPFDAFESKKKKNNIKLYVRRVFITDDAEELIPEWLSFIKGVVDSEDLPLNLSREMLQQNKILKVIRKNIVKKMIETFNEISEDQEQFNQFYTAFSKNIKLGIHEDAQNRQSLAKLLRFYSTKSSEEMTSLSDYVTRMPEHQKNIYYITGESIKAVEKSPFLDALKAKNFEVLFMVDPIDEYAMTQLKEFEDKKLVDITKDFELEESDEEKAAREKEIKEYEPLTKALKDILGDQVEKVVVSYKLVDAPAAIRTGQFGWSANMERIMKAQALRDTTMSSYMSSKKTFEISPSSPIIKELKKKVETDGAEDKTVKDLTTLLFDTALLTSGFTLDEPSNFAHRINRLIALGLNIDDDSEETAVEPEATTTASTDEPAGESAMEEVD
Chain of Serine/threonine-protein phosphatase (B9W6M3 whole entry): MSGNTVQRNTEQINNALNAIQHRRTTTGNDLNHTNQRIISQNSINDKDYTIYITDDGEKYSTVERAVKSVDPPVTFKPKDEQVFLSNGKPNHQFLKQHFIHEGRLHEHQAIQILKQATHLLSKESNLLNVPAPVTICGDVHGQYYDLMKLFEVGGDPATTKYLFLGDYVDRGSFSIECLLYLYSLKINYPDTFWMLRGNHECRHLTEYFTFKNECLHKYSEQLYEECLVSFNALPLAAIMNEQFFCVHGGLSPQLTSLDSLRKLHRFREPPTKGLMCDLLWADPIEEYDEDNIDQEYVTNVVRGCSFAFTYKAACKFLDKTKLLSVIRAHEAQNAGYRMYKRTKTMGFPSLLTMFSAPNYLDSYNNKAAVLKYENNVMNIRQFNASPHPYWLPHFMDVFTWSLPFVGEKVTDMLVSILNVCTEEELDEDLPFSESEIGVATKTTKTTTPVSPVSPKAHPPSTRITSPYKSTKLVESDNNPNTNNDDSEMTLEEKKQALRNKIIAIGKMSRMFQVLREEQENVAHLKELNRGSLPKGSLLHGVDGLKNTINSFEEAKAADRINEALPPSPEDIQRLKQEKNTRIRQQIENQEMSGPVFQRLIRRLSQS
Chain of Cytochrome P450 3A4 (P08684 whole entry): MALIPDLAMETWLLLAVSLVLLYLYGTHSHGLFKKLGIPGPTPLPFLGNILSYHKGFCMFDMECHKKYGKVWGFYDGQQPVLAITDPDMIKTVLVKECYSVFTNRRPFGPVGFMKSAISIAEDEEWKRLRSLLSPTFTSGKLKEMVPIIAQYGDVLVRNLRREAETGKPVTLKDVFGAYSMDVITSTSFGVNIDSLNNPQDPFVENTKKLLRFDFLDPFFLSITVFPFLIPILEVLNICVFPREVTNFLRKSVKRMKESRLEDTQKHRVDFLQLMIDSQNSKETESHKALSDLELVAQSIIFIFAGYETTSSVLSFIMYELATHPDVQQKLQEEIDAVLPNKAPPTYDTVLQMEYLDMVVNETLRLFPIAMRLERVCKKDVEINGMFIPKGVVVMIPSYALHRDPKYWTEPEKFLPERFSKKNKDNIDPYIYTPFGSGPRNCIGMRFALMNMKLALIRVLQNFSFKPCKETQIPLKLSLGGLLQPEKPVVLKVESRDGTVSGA
Chain of Estrogen receptor beta (Q92731 whole entry): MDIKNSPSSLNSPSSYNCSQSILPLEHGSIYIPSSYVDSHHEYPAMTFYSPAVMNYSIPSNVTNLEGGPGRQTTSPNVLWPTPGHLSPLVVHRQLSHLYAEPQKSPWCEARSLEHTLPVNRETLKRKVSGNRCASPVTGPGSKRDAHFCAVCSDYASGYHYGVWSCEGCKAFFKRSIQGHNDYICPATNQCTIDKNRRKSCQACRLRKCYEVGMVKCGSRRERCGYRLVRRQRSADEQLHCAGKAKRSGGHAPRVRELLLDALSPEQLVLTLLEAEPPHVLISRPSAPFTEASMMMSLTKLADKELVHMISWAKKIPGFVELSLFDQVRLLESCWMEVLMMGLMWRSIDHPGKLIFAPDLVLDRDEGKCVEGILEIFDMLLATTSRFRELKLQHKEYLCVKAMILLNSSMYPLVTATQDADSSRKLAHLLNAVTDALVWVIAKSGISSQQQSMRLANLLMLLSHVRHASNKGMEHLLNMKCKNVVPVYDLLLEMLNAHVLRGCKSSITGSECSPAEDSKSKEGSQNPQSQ
Chain of Delta-type opioid receptor (P41143 whole entry): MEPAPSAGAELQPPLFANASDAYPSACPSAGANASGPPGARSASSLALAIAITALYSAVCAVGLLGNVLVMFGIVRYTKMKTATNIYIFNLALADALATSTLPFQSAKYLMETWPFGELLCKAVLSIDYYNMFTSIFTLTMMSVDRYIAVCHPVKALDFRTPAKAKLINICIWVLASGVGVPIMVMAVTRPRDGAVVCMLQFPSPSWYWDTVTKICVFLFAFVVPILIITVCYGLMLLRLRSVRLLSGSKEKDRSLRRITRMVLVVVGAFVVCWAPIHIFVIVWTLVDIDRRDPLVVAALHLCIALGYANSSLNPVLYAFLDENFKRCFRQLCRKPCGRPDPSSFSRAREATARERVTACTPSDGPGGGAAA
Chain of Cytochrome P450 2C19 (P33261 whole entry): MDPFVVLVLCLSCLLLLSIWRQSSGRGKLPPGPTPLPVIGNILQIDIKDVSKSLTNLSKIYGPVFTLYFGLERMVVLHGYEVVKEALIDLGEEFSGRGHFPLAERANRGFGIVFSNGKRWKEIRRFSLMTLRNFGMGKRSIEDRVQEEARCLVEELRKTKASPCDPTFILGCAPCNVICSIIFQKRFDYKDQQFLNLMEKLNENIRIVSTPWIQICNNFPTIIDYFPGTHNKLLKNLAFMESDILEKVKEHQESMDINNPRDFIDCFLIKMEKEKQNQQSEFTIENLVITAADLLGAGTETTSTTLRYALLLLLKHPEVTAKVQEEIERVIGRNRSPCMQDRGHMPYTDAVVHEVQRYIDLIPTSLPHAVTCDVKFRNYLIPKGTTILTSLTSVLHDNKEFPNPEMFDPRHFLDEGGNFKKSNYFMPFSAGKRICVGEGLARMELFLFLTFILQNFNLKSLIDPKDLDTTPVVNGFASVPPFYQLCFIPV
Chain of 5-hydroxytryptamine receptor 5A (P47898 whole entry): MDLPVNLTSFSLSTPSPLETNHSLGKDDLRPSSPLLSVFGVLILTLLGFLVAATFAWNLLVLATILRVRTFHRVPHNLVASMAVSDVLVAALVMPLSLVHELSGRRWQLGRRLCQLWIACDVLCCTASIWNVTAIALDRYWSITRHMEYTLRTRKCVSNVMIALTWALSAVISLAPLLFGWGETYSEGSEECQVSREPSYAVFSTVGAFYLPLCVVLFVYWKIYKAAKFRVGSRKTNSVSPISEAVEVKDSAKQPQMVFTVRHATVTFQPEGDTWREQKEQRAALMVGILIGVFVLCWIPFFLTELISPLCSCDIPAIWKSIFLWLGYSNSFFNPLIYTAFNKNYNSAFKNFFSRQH
Chain of Nonstructural protein 1 (Q194T2 whole entry): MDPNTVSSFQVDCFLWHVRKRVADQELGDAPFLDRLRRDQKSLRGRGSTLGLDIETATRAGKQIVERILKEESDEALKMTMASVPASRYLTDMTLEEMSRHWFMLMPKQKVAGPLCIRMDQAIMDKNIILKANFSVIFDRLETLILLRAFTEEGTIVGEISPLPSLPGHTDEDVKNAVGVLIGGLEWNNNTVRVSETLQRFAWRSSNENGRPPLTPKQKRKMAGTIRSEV

Structure (SMILES)	EC50 [1]	EC50 [2]	EC50 [3]	EC50 [4]	EC50 (Protein RecA)	EC50 [5]	EC50 [6]	EC50 [7]	EC50 [8]	IC50 (Nonstructural protein 1)	IC50 (Estrogen receptor beta)	EC50 [9]	AC50 [10]	EC50 [11]	AC50 (Cytochrome P450 3A4)	EC50 [12]	EC50 [13]	AC50 (Cytochrome P450 2C19)	EC50 [14]	EC50 (Mu-type opioid receptor)
CCn1c(Sc2nc(C)nc3scc(-c4cccs4)c23)n[nH]c1=O	30.7 µM (active)	> 180 µM (inactive)	–	–	–	–	–	–	–	–	–	–	–	–	–	–	–	–	–	–
CCN1CCN(C(c2cccnc2)c2cc(Cl)c3cccnc3c2O)CC1 (configuration not stated)	> 150 µM (inactive)	> 180 µM (inactive)	> 60 µM (not active)	2.13 µM (active)	1.8 µM (active)	> 150 µM (inactive)	> 195 µM (not active)	15.1 µM (active)	0.916 µM (active)	17.8 µM (active)	2.39 µM (not active)	12.7 µM (active)	> 380 µM (inactive)	–	–	–	–	–	–	–
CN1C2C=C(N(CCc3c[nH]c4ccccc34)C(=O)c3ccc(Cl)cc3)CC1CC2 (configuration not stated)	–	–	–	–	–	–	–	–	–	–	–	–	–	> 92.5 µM (inactive)	17.8 µM (inconclusive)	0.211 µM (active)	0.596 µM (active)	5.01 µM (inconclusive)	> 92.5 µM (inactive)	47.9 µM (inactive)
